The values below come from ChEMBL document CHEMBL1201862, “PubChem BioAssay data set” (2004).

Some test systems named below: SNB-19; 786-0; M14; HOP-92; OVCAR-5; A549; HCT-15; MDA-MB-231; HCC 2998; SK-MEL-2; NCI/ADR-RES; SK-MEL-28; A498; UACC-257; K562; SNB-75; NCI-H23; SF-295; MDA-N; OVCAR-8.
What all share (test): growth of human tumour cells (NCI), 48 h

The structures appear in SMILES notation.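 Protocol summary: plate cells (96-well), add compound at 5 concentrations, incubate 48 h, interpolate endpoints linearly. GI50 marks 50% less growth.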 The source made the active and inactive calls. Cut-off read from the data, not from the text of the source: active = GI50 up to about 1.1 µM and inactive = higher. Square brackets hold non-standard residues; d marks the D form. Peptide text beside a SMILES is read from it. * marks the point of attachment. ξ: configuration not given here. NMeN = CN[C@@H](CC(N)=O)C(=O)O; NMeV = CN[C@H](C(=O)O)C(C)C; ξNMeV = CNC(C(=O)O)C(C)C; Boc = CC(C)(C)OC(=O)*; ξNMeA = CNC(C)C(=O)O

Take `O=[N+]([O-])c1ccc(/C(=C\c2ccccc2)Cn2ccnc2)cc1`: the GI50 is 57.9 µM (inactive) in the assay with SNB-19; 34.3 µM (inactive) in the assay with 786-0; 36.9 µM (inactive) in the assay on M14; 18.9 µM (inactive) in the assay with HOP-92; 61.5 µM (inactive) in the assay with OVCAR-5; 39.3 µM (inactive) with A549. Moreover, the GI50 in the assay with HCT-15 was 30.2 µM; in the assay with MDA-MB-231 it was 13.1 µM (inactive); in the assay on HCC 2998, 68.7 µM (inactive); with SK-MEL-2, 22.9 µM (inactive); with NCI/ADR-RES it was 21.1 µM (inactive); with SK-MEL-28, 59.6 µM (inactive). Further, the GI50 was 20.9 µM (inactive) in the assay on A498; 37.6 µM (inactive) with UACC-257; 17.8 µM (inactive) in the assay with K562; 27.4 µM (inactive) in the assay with SNB-75; 26.5 µM (inactive) with NCI-H23; 32.7 µM (inactive) in the assay on SF-295. Besides, the values for the GI50 with MDA-N and in the assay with OVCAR-8 were 25.4 µM (inactive) and 35.9 µM (inactive), respectively.
Consider `Cn1c(=O)cc(NNc2ccc(Cl)c(Cl)c2)[nH]c1=O`, for which the GI50 in the assay on SNB-19 is 32.1 µM (inactive); in the assay on 786-0, 12.4 µM (inactive); in the assay on M14, 5.25 µM (inactive); in the assay with HOP-92 it was 14.9 µM (inactive); in the assay with OVCAR-5 it was 14.4 µM (inactive); in the assay with A549, 16.2 µM (inactive). Further, the GI50 in the assay on HCT-15 is 3.75 µM; in the assay with MDA-MB-231 it was 10.8 µM (inactive); with HCC 2998, 2.53 µM (inactive); in the assay on SK-MEL-2, 16.4 µM (inactive); in the assay with NCI/ADR-RES, 13.3 µM (inactive); in the assay with SK-MEL-28, 11.5 µM (inactive). The GI50 in the assay on A498 was 36.8 µM (inactive); in the assay on UACC-257, 14.9 µM (inactive); with K562 it was 2.04 µM (inactive); with SNB-75 it was 23 µM (inactive); in the assay with NCI-H23, 29.2 µM (inactive); in the assay with SF-295 it was 15.3 µM (inactive). Further, the GI50 with MDA-N is 9.06 µM (inactive); in the assay on OVCAR-8, 13.6 µM (inactive).
On to `COc1ccc([C@]23CCN(S(=O)(=O)c4ccc(C)cc4)[C@H]2[C@H](CO)C2(CC3)OCC(C)(C)CO2)cc1OC`, for which the GI50 in the assay on SNB-19, with 786-0, in the assay with M14, in the assay with HOP-92, in the assay on OVCAR-5 and in the assay on A549 was > 100 µM (inactive) in each case. In addition, the GI50 with HCT-15 is greater than 100 µM; in the assay with MDA-MB-231, > 100 µM (inactive); with HCC 2998, > 100 µM (inactive); with SK-MEL-2, > 100 µM (inactive); with NCI/ADR-RES, > 100 µM (inactive); in the assay on SK-MEL-28, > 100 µM (inactive). Further, the GI50 in the assay with A498, in the assay on UACC-257, in the assay on K562, in the assay with SNB-75, in the assay with NCI-H23 and with SF-295 was > 100 µM (inactive) throughout. Also, the GI50 with MDA-N and with OVCAR-8 was > 100 µM (inactive) each time.
For `OCCc1ccsc1-c1sc(-c2cc(CCO)c(-c3sc(-c4cc(CCO)c(-c5sccc5CCO)s4)cc3CCO)s2)cc1CCO`, the GI50 was 1.7 µM (inactive) in the assay with SNB-19; 0.776 µM (active) with 786-0; 1.82 µM (inactive) in the assay with M14; 1.14 µM (inactive) with HOP-92; 1.38 µM (inactive) with OVCAR-5; 0.656 µM (active) in the assay with A549. In addition, the GI50 with HCT-15 is 1.03 µM; with MDA-MB-231 it was 2.83 µM (inactive); with HCC 2998, 1.47 µM (inactive); with SK-MEL-2 it was 1.68 µM (inactive); in the assay on NCI/ADR-RES, 1.86 µM (inactive); in the assay with SK-MEL-28, 1.55 µM (inactive). In addition, the GI50 is 2 µM (inactive) with A498; 1.13 µM (inactive) in the assay with UACC-257; 1.14 µM (inactive) with K562; 1.27 µM (inactive) in the assay on SNB-75; 0.853 µM (active) with NCI-H23; 1.29 µM (inactive) with SF-295. Besides, the GI50 in the assay on MDA-N was 1.24 µM (inactive); in the assay with OVCAR-8 it was 1.55 µM (inactive).
`CC1(COS(=O)(=O)OCC2(C)COS(=O)(=O)OC2)COS(=O)(=O)OC1`: the GI50 in the assay with SNB-19 is > 60.7 µM (inactive); in the assay with 786-0, > 50.8 µM (inactive); with M14, > 51.4 µM (inactive); with HOP-92, 10.3 µM (inactive); in the assay on OVCAR-5, > 100 µM (inactive); in the assay on A549 it was > 28.8 µM (inactive). The GI50 in the assay with HCT-15 was greater than 35.7 µM; in the assay on MDA-MB-231, > 73.6 µM (inactive); in the assay with HCC 2998, > 60.7 µM (inactive); in the assay on SK-MEL-2, > 55.6 µM (inactive); in the assay on NCI/ADR-RES it was > 48.3 µM (inactive); in the assay with SK-MEL-28, > 100 µM (inactive). The GI50 with A498 is > 45.8 µM (inactive); in the assay on UACC-257, > 75 µM (inactive); with K562, > 26.2 µM (inactive); in the assay with SNB-75, > 100 µM (inactive); in the assay with NCI-H23, > 25.8 µM (inactive); in the assay on SF-295 it was > 100 µM (inactive). The GI50 in the assay on MDA-N was > 72.4 µM (inactive); in the assay with OVCAR-8 it was > 48.3 µM (inactive).
With `COc1cc(CCNC2=CC(=O)c3ncccc3C2=O)ccc1O`, the GI50 with SNB-19 was 3.48 µM (inactive); with 786-0, 4.2 µM (inactive); with M14 it was 1.71 µM (inactive); in the assay on HOP-92 it was 19.2 µM (inactive); in the assay with OVCAR-5 it was 8.91 µM (inactive); in the assay with A549 it was 2.1 µM (inactive). For the same molecule, the GI50 with HCT-15 was 1.94 µM; in the assay on MDA-MB-231, 2.37 µM (inactive); with HCC 2998 it was 4.23 µM (inactive); with SK-MEL-2 it was 2.53 µM (inactive); in the assay with NCI/ADR-RES it was 2.93 µM (inactive); in the assay on SK-MEL-28, 2 µM (inactive). The GI50 in the assay with A498 is 16.6 µM (inactive); with UACC-257, 1.9 µM (inactive); in the assay with K562 it was 2.21 µM (inactive); with SNB-75 it was 1.63 µM (inactive); in the assay on NCI-H23 it was 0.828 µM (active); in the assay with SF-295, 1.6 µM (inactive). The GI50 was 1.37 µM (inactive) with MDA-N and 2.41 µM (inactive) in the assay with OVCAR-8.
As for `C=C(CC[C@@H](C(=O)O)[C@H]1[C@H](O)C[C@@]2(C)C3=CC[C@@H](C(=C)C)[C@](C)(CCC(=O)O)C3=CC[C@]12C)C(C)C` [PORICOIC ACID A], the GI50 with SNB-19 is 17.7 µM (inactive); in the assay on 786-0, 16.6 µM (inactive); with M14, 17.9 µM (inactive); in the assay on HOP-92, 16.6 µM (inactive); in the assay on OVCAR-5 it was 16.5 µM (inactive); with A549 it was 18.7 µM (inactive). The GI50 with HCT-15 is 17.2 µM; in the assay on MDA-MB-231 it was 20.8 µM (inactive); in the assay on HCC 2998, 17.9 µM (inactive); in the assay on SK-MEL-2, 18.5 µM (inactive); in the assay with NCI/ADR-RES it was 19.7 µM (inactive); with SK-MEL-28, 19.4 µM (inactive). The GI50 in the assay with A498 was 23.6 µM (inactive); in the assay with UACC-257 it was 16.4 µM (inactive); in the assay on K562, 26.5 µM (inactive); with SNB-75, 20.4 µM (inactive); with NCI-H23, 16.9 µM (inactive); in the assay with SF-295, 17.5 µM (inactive). Besides, the figures for the GI50 in the assay on MDA-N and in the assay with OVCAR-8 were 16.9 µM (inactive) and 19.5 µM (inactive), respectively.
For `COC(=O)C(C)N(C)C(=O)[C@H](CC(N)=O)N(C)C(=O)[C@@H]1CCCN1C(=O)[C@H](C(C)C)N(C)C(=O)C(C(C)C)N(C)C(=O)[C@@H](NC(=O)OC(C)(C)C)C(C)C` (stereo not given in full) (Boc-V[ξNMeV][NMeV]P[NMeN][ξNMeA]-OMe), the GI50 in the assay on SNB-19 is > 50 µM (inactive); in the assay with 786-0, > 50 µM (inactive); in the assay with M14, > 50 µM (inactive); with HOP-92, > 50 µM (inactive); in the assay with OVCAR-5, > 50 µM (inactive); with A549 it was 37.5 µM (inactive). For the same molecule, the GI50 in the assay with HCT-15 is greater than 100 µM; in the assay on MDA-MB-231 it was > 50 µM (inactive); with HCC 2998, > 50 µM (inactive); in the assay with SK-MEL-2, > 50 µM (inactive); in the assay on NCI/ADR-RES, > 50 µM (inactive); in the assay with SK-MEL-28, > 50 µM (inactive). Moreover, the GI50 is > 50 µM (inactive) with A498; > 50 µM (inactive) with UACC-257; 43.4 µM (inactive) in the assay with K562; > 100 µM (inactive) in the assay on SNB-75; > 50 µM (inactive) with NCI-H23; > 50 µM (inactive) in the assay with SF-295. The GI50 in the assay with MDA-N was > 50 µM (inactive); in the assay with OVCAR-8 it was > 100 µM (inactive).
Turning to `CC(C)=CCC[C@@H](C)C1=C(N)C(=O)C(C)=C(O)C1=O`, the GI50 with SNB-19 is 60.7 µM (inactive); in the assay on 786-0 it was 43.7 µM (inactive); in the assay on M14, 38.7 µM (inactive); in the assay on HOP-92, 57.4 µM (inactive); in the assay on OVCAR-5 it was 53.1 µM (inactive); in the assay with A549, 32.6 µM (inactive). The GI50 in the assay with HCT-15 is 23.3 µM; in the assay on MDA-MB-231 it was 67.5 µM (inactive); with HCC 2998 it was > 75 µM (inactive); in the assay with SK-MEL-2 it was 65.9 µM (inactive); with NCI/ADR-RES it was 8.28 µM (inactive); with SK-MEL-28, > 75 µM (inactive). In addition, the GI50 with A498 is 29.9 µM (inactive); in the assay with UACC-257, > 75 µM (inactive); with K562, 35.7 µM (inactive); in the assay on SNB-75, 40.6 µM (inactive); with NCI-H23, 42.7 µM (inactive); with SF-295, 32.1 µM (inactive). In addition, the GI50 was 51.3 µM (inactive) in the assay on MDA-N and 22.4 µM (inactive) with OVCAR-8.
